This note sets out measurements from patent US7875621B2, “Substituted 2-alkyl quinazolinone derivatives as PARP inhibitors” (Janssen Pharmaceutica NV, priority 2004, dated 2011).

Structures are written as SMILES.

Assay [1] concerns the target T1, PARP-1 enzyme (Homo sapiens, UniProt P09874). Description: In vitro scintillation proximity assay (SPA) for PARP-1 inhibitory activity. It counts as biochemical. As for the experimental part:
In Vitro Scintillation Proximity Assay (SPA) for PARP-1 Inhibitory Activity
Compounds of the present invention were tested in an in vitro assay based on SPA technology (proprietary to Amersham Pharmacia Biotech).
In principle, the assay relies upon the well established SPA technology for the detection of poly(ADP-ribosyl)ation of biotinylated target proteins, i.e histones. This ribosylation is induced using nicked DNA activated PARP-1 enzyme and [^3H]-nicotinamide adenine dinucleotide ([^3H]-NAD^+) as ADP-ribosyl donor.
As inducer of PARP-1 enzyme activity, nicked DNA was prepared. For this, 25 mg of DNA (supplier: Sigma) was dissolved in 25 ml DNAse buffer (10 mM Tris-HCl, pH 7.4; 0.5 mg/ml Bovine Serum Albumine (BSA); 5 mM MgCl2.6H2O and 1 mM KCl) to which 50 μl DNAse solution (1 mg/ml in 0.15 M NaCl) was added. After an incubation of 90 min. at 37° C., the reaction was terminated by adding 1.45 g NaCl, followed by a further incubation at 58° C. for 15 min. The reaction mixture was cooled on ice and dialysed at 4° C. for respectively 1.5 and 2 hours against 1.5 l of 0.2 M KCl, and twice against 1.5 l of 0.01 M KCl for 1.5 and 2 h respectively. The mixture was aliquoted and stored at −20° C. Histones (1 mg/ml, type II-A, supplier: Sigma) were biotinylated using the biotinylation kit of Amersham and stored aliquoted at −20° C. A stock solution of 100 mg/ml SPA poly(vinyl toluene) (PVT) beads (supplier: Amersham) was made in PBS. A stock solution of [^3H]-NAD^+ was made by adding 120 μl of [^3H]-NAD^+ (0.1 mCi/ml, supplier: NEN) to 6 ml incubation buffer (50 mM Tris/HCl, pH 8; 0.2 mM DTT; 4 mM MgCl2). A solution of 4 mM NAD^+ (supplier: Roche) was made in incubation buffer (from a 100 mM stock solution in water stored at −20° C.). The PARP-1 enzyme was produced using art known techniques, i.e. cloning and expression of the protein starting from human liver cDNA. Information concerning the used protein sequence of the PARP-1 enzyme including literature references can be found in the Swiss-Prot database under primary accession number P09874. Biotinylated histones and PVT-SPA beads were mixed and pre-incubated for 30 min. at room temperature. PARP-1 enzyme (concentration was lot dependent) was mixed with the nicked DNA and the mixture was pre-incubated for 30 min. at 4° C. Equal parts of this histones/PVT-SPA beads solution and PARP-1 enzyme/DNA solution were mixed and 75 μl of this mixture together with 1 μl of compound in DMSO and 25 μl of [^3H]-NAD^+ was added per well into a 96-well microtiterplate. The final concentrations in the incubation mixture were 2 μg/ml for the biotinylated histones, 2 mg/ml for the PVT-SPA beads, 2 μg/ml for the nicked DNA and between 5-10 μg/ml for the PARP-1 enzyme. After incubation of the mixture for 15 min. at room temperature, the reaction was terminated by adding 100 μl of 4 mM NAD in incubation buffer (final concentration 2 mM) and plates were mixed.
The beads were allowed to sediment for at least 15 min. and plates transferred to a TopCountNXT™ (Packard) for scintillation counting, values were expressed as counts per minute (cpm). For each experiment, controls (containing PARP-1 enzyme and DMSO without compound), a blank incubation (containing DMSO but no PARP-1 enzyme or compound) and samples (containing PARP-1 enzyme and compound dissolved in DMSO) were run in parallel. All compounds tested were dissolved and eventually further diluted in DMSO. […] In each test, the blank value was subtracted from both the control and the sample values. The control sample represented maximal PARP-1 enzyme activity. For each sample, the amount of cpm was expressed as a percentage of the mean cpm value of the controls. When appropriate, IC50-values (concentration of the drug, needed to reduce the PARP-1 enzyme activity to 50% of the control) were computed using linear interpolation between the experimental points just above and below the 50% level. […]
(SPA uses beads or plates that emit light when radiolabelled molecules are held near them.)

In assay [2] the target is T1, PARP-1 enzyme. Nature of the assay: In vitro filtration assay for PARP-1 inhibitory activity. The class given is biochemical. As for the experimental part: In Vitro Filtration Assay for PARP-1 Inhibitory Activity
Compounds of the present invention were tested in an in vitro filtration assay assessing PARP-1 activity (triggered in the presence of nicked DNA) by means of its histone poly(ADP-ribosyl)ation activity using [^32P]-NAD as ADP-ribosyl donor. The radioactive ribosylated histones were precipitated by trichloroacetic acid (TCA) in 96-well filterplates and the incorporated [^32P] measured using a scintillation counter
A mixture of histones (stock solution: 5 mg/ml in H2O), NAD^+ (stock solution: 100 mM in H2O), and [^32P]-NAD^+ in incubation buffer (50 mM Tris/HCl, pH 8; 0.2 mM DTT; 4 mM MgCl2) was made. A mixture of the PARP-1 enzyme (5-10 μg/ml) and nicked DNA was also made. The nicked DNA was prepared as described in the in vitro SPA for PARP-1 inhibitory activity. […] of the PARP-1 enzyme/DNA mixture together with 1 μl of compound in DMSO and 25 μl of histones-NAD^+/[^32P]-NAD^+ mixture was added per well of a 96-well filterplate (0.45 μm, supplier Millipore). The final concentrations in the incubation mixture were 2 μg/ml for the histones, 0.1 mM for the NAD^+, […] (0.5 μC) for the [^32P]-NAD^+ and 2 μg/ml for the nicked DNA. Plates were incubated for 15 min. at room temperature and the reaction was terminated by the addition of 10 μl ice cold 100% TCA followed by the addition of 10 μl ice-cold BSA solution (1% in H2O). The protein fraction was allowed to precipitate for 10 min. at 4° C. and plates were vacuum filtered. The plates were subsequently washed with, for each well, 1 ml of 10% ice cold TCA, 1 ml of 5% ice cold TCA and 1 ml of 5% TCA at room temperature. Finally 100 μl of scintillation solution (Microscint 40, Packard) was added to each well and the plates were transferred to a TopCountNXT™ (supplier: Packard) for scintillation counting and values were expressed as counts per minute (cpm). For each experiment, controls (containing PARP-1 enzyme and DMSO without compound), a blank incubation (containing DMSO but no PARP-1 enzyme or compound) and samples (containing PARP-1 enzyme and compound dissolved in DMSO) were run in parallel. All compounds tested were dissolved and eventually further diluted in DMSO. In first instance, compounds were tested at a concentration of 10^−5M. […] In each test, the blank value was subtracted from both the control and the sample values. The control sample represented maximal PARP-1 enzyme activity. For each sample, the amount of cpm was expressed as a percentage of the mean cpm value of the controls. When appropriate, IC50-values (concentration of the drug, needed to reduce the PARP-1 enzyme activity to 50% of the control) were computed using linear interpolation between the experimental points just above and below the 50% level. Herein the effects of test compounds are expressed as pIC50 (the negative log value of the IC50-value). As a reference compound, 4-amino-1,8-naphthalimide was included to validate the filtration assay.

Where [3] appears, read: [3H]-NAD+, nicked DNA, biotinylated histones, read-out: in vitro SPA assay PARP-1 pIC50 (converted).
Where [4] appears, read: [32P]-NAD, nicked DNA, histones, read-out: in vitro filter assay PARP-1 pIC50 (converted).

T1 sequence (P09874 whole entry): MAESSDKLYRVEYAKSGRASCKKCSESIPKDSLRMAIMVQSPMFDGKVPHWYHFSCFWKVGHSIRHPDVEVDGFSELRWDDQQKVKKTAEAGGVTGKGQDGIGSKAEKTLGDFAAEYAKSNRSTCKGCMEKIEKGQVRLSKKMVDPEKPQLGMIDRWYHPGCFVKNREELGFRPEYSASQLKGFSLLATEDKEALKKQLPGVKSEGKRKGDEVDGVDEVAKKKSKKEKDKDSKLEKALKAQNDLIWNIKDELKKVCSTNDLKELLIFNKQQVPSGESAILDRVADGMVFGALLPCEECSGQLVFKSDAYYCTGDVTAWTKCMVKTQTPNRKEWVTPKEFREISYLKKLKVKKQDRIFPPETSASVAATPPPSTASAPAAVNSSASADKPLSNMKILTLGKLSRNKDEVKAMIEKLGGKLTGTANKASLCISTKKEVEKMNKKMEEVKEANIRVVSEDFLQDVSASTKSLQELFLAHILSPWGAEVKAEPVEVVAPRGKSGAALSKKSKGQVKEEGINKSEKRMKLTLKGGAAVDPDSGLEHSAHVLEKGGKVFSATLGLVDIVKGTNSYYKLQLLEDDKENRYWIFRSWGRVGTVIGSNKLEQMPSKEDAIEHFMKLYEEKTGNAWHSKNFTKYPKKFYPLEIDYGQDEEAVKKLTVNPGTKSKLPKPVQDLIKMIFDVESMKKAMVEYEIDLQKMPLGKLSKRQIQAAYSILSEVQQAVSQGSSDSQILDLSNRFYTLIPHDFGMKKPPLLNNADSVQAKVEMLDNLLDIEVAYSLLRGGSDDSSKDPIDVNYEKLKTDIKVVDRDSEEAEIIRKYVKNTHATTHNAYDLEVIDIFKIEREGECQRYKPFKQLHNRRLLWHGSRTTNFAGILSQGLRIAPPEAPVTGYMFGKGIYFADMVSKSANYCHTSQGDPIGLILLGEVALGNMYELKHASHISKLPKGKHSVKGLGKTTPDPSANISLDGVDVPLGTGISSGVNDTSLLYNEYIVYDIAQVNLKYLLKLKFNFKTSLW

Turning to `O=C1NC(CCCN2CCC(n3c(=O)[nH]c4ccccc43)CC2)Nc2ccccc21` (stereo not drawn) [Compound 7], the IC50 is 585 nM on PARP-1 enzyme [1] (setting [3]) and 4160 nM on PARP-1 enzyme [2] (setting [4]).

On to `NC(=O)C1(c2ccccc2)CCN(CCCC2NC(=O)c3ccccc3N2)CC1` (stereo not drawn) [Compound 5], for which the IC50 at PARP-1 enzyme [1] (setting [3]) is 22.9 nM; at PARP-1 enzyme [2] (setting [4]) it was 300 nM.

Regarding `O=C1NCN(c2ccccc2)C12CCN(CCCc1nc3ccccc3c(=O)[nH]1)CC2` [Compound 2], the results for the IC50 at PARP-1 enzyme [1] (setting [3]) and at PARP-1 enzyme [2] (setting [4]) were 385 nM and 4980 nM, respectively.

As to `O=C1NC(CCN2CCC3(CC2)C(=O)NCN3c2ccccc2)Nc2ccccc21` (stereo not drawn) [Compound 6], the values for the IC50 on PARP-1 enzyme [1] (setting [3]) and at PARP-1 enzyme [2] (setting [4]) were 178 nM and 2140 nM, respectively.

Consider `NC(=O)C1(N2CCOCC2)CCN(CCCc2nc3ccccc3c(=O)[nH]2)CC1` [Compound 11], for which the IC50 was 188 nM at PARP-1 enzyme [1] (setting [3]) and 1140 nM on PARP-1 enzyme [2] (setting [4]).

`O=C1NC(CCN2CCC(n3c(=O)[nH]c4ccccc43)CC2)Nc2ccccc21` (stereo not drawn) [Compound 13]: the IC50 against PARP-1 enzyme [1] was 318 nM; at PARP-1 enzyme [2], 4660 nM.

Consider `O=C(c1ccc(F)cc1)C1CCN(CCc2nc3ccccc3c(=O)[nH]2)CC1` [Compound 9], for which the IC50 is 611 nM on PARP-1 enzyme [1] (setting [3]) and 5710 nM at PARP-1 enzyme [2] (setting [4]).

Turning to `O=C(NC1CCN(CCCC2NC(=O)c3ccccc3N2)CC1)c1ccccc1` (stereo not drawn) [Compound 8], the IC50 at PARP-1 enzyme [1] (setting [3]) was 236 nM; on PARP-1 enzyme [2] (setting [4]), 1570 nM.

As to `O=C(CC1CCN(CCc2nc3ccccc3c(=O)[nH]2)CC1)c1ccc(F)cc1` [Compound 3], the IC50 is 560 nM on PARP-1 enzyme [1] (setting [3]) and 4260 nM on PARP-1 enzyme [2] (setting [4]).

In the case of `O=C(NC1CCN(CCCc2nc3ccccc3c(=O)[nH]2)CC1)c1ccccc1` [Compound 12], the IC50 was 117 nM at PARP-1 enzyme [1] (setting [3]) and 673 nM on PARP-1 enzyme [2] (setting [4]).

Turning to `O=C(c1ccc(F)cc1)C1CCN(CCCc2nc3ccccc3c(=O)[nH]2)CC1` [Compound 14], the values for the IC50 at PARP-1 enzyme [1] (setting [3]) and on PARP-1 enzyme [2] (setting [4]) were 58.6 nM and 546 nM, respectively.

For `NC(=O)C1(c2ccccc2)CCN(CCCc2nc3ccccc3c(=O)[nH]2)CC1` [Compound 4], the values for the IC50 on PARP-1 enzyme [1] (setting [3]) and on PARP-1 enzyme [2] (setting [4]) were 20 nM and 76.7 nM, respectively.
